The target of one assay is NEK6 (Homo sapiens, UniProt Q9HC98). In words: biochemical. As to conditions: read-out: % enzyme activity, 1 μM; Run 1, Run 2.
Another assay deals with STK39/STLK3 (Homo sapiens, UniProt Q9UEW8). To be noted: 1 μM; Run 1, Run 2.
A further assay has as its target TTBK1 (Homo sapiens, UniProt Q5TCY1). Briefly: biochemical. To be noted: read-out: % enzyme activity, 1 μM; Run 1, Run 2.
The next assay addresses EGFR (Homo sapiens, UniProt P00533). To be noted: 1 μM; Run 1, Run 2.
The next assay addresses EPHA4 (Homo sapiens, UniProt P54764). To be noted: 1 μM; Run 1, Run 2.
The target of another assay is JAK2 (Homo sapiens, UniProt O60674). Briefly: biochemical. As to conditions: read-out: % enzyme activity, 1 μM; Run 1, Run 2.
The next assay addresses TESK1 (Homo sapiens, UniProt Q15569). To be noted: 1 μM; Run 1, Run 2.
The next assay addresses PKCb2 (Homo sapiens, UniProt P05771). As to conditions: 1 μM; Run 1, Run 2.
In the next assay the target is T1, TAOK3/JIK (Homo sapiens, UniProt Q9H2K8).
T1 sequence (Q9H2K8 1-898): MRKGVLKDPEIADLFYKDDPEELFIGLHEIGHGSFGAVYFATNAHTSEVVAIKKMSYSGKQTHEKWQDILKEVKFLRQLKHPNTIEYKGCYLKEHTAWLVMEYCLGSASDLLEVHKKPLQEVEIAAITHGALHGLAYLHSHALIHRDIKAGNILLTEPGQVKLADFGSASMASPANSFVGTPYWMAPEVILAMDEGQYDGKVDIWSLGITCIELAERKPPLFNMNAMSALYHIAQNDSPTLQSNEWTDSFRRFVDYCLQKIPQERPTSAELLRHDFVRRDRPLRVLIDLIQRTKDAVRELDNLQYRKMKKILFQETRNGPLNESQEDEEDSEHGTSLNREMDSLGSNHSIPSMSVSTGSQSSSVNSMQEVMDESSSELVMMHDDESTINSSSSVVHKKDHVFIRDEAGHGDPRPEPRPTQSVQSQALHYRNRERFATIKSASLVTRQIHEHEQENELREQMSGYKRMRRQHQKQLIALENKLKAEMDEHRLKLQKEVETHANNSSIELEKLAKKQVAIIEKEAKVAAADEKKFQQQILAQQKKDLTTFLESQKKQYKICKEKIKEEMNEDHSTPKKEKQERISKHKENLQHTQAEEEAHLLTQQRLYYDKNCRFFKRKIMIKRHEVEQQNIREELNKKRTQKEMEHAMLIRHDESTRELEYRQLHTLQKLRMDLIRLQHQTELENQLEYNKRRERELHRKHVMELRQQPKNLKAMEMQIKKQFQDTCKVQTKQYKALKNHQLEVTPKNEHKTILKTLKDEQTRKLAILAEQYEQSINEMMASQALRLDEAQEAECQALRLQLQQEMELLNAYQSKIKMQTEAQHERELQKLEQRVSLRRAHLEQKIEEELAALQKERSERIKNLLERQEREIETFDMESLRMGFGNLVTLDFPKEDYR
Briefly: biochemical. To be noted: read-out: % enzyme activity, 1 μM; Run 1, Run 2.

The next assay has as its target FYN (Homo sapiens, UniProt P06241). As to conditions: 1 μM; Run 1, Run 2.
For the next assay, the target named is CDK6/cyclin D1 (Homo sapiens, UniProt Q00534). To be noted: 1 μM; Run 1, Run 2.
The next assay deals with CLK4 (Homo sapiens, UniProt Q9HAZ1). To be noted: 1 μM; Run 1, Run 2.
Chain of CLK4 (Q9HAZ1 whole entry): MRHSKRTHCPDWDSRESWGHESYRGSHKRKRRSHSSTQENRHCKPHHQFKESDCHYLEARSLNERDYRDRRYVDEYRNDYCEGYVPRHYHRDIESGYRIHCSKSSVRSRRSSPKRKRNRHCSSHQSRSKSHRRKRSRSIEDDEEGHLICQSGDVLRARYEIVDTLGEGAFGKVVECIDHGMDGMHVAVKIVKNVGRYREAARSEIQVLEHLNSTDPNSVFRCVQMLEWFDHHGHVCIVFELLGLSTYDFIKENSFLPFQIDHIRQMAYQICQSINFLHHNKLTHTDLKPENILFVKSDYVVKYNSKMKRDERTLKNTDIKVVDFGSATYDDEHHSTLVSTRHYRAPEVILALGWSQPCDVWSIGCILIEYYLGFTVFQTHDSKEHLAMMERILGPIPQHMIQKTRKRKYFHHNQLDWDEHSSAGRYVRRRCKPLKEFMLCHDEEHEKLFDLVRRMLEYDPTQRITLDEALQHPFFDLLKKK
The target in another assay is T2, MASTL (Homo sapiens, UniProt Q96GX5).
T2 sequence (Q96GX5 1-879): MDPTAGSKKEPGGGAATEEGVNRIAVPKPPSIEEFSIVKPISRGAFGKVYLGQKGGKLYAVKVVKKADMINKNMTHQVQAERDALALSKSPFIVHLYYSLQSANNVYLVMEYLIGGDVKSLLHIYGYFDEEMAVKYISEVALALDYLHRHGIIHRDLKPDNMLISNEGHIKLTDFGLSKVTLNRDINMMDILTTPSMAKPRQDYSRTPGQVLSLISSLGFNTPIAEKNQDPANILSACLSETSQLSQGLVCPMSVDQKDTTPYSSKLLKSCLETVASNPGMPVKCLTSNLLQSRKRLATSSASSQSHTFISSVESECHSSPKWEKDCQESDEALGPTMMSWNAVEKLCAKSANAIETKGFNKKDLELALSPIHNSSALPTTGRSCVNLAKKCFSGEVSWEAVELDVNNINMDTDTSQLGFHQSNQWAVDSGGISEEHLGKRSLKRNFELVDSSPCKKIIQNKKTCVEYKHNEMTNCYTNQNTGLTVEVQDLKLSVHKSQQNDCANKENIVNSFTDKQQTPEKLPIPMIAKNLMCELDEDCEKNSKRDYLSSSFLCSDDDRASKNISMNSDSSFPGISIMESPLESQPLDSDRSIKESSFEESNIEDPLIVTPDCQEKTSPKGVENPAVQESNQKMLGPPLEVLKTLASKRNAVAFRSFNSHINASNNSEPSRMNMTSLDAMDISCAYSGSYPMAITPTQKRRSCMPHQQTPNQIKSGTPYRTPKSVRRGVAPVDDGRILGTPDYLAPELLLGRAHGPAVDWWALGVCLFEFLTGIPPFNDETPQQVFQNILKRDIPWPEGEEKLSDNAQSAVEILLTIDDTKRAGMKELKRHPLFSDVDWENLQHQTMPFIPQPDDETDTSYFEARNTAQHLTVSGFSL
Briefly: biochemical. As to conditions: read-out: % enzyme activity, 1 μM; Run 1, Run 2.

The target of another assay is LCK (Homo sapiens, UniProt P06239). To be noted: 1 μM; Run 1, Run 2.
Chain of LCK (P06239 whole entry): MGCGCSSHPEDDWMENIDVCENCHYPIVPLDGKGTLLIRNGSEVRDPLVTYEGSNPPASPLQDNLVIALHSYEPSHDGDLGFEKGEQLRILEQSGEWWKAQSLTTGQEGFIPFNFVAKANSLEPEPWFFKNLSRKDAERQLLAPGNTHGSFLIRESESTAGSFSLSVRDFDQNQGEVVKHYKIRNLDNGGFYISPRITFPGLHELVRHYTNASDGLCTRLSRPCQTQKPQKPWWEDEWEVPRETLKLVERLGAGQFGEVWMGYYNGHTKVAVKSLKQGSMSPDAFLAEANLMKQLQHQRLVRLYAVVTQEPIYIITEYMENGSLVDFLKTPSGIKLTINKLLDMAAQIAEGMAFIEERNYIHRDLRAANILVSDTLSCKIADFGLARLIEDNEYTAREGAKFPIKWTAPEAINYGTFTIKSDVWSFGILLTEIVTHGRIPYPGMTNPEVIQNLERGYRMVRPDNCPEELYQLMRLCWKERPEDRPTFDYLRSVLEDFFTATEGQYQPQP
In the next assay the target is PIM1 (Homo sapiens, UniProt P11309). In words: biochemical. As to conditions: read-out: % enzyme activity, 1 μM; Run 1, Run 2.
Another assay deals with NEK4 (Homo sapiens, UniProt P51957). In words: biochemical. To be noted: read-out: % enzyme activity, 1 μM; Run 1, Run 2.
A further assay addresses CDK19/cyclin C (Homo sapiens, UniProt Q9BWU1). As to conditions: 1 μM; Run 1, Run 2.

Chain of CDK19/cyclin C (Q9BWU1 whole entry): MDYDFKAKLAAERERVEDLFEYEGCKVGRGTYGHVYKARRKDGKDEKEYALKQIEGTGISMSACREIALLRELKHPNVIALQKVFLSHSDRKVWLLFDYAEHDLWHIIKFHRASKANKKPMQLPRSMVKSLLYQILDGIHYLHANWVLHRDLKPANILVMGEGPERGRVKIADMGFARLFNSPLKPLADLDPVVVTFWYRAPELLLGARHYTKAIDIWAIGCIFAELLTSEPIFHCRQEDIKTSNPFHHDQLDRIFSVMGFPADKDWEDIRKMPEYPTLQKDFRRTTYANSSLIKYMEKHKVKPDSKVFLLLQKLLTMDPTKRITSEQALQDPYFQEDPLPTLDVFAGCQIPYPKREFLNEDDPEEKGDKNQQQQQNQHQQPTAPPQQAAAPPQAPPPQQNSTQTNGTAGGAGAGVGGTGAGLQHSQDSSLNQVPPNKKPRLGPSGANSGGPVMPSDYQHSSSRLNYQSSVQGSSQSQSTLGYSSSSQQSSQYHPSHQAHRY
Chain of CDK19/cyclin C (P24863 whole entry partner): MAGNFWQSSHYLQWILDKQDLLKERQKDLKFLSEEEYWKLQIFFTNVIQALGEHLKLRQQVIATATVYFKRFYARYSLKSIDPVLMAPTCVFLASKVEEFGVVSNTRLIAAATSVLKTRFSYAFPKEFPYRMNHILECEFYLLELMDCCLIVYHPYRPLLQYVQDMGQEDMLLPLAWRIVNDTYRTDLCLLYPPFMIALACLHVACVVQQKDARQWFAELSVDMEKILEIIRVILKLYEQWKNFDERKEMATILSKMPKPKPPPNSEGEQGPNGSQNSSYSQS
Chain of EPHA4 (P54764 20-986): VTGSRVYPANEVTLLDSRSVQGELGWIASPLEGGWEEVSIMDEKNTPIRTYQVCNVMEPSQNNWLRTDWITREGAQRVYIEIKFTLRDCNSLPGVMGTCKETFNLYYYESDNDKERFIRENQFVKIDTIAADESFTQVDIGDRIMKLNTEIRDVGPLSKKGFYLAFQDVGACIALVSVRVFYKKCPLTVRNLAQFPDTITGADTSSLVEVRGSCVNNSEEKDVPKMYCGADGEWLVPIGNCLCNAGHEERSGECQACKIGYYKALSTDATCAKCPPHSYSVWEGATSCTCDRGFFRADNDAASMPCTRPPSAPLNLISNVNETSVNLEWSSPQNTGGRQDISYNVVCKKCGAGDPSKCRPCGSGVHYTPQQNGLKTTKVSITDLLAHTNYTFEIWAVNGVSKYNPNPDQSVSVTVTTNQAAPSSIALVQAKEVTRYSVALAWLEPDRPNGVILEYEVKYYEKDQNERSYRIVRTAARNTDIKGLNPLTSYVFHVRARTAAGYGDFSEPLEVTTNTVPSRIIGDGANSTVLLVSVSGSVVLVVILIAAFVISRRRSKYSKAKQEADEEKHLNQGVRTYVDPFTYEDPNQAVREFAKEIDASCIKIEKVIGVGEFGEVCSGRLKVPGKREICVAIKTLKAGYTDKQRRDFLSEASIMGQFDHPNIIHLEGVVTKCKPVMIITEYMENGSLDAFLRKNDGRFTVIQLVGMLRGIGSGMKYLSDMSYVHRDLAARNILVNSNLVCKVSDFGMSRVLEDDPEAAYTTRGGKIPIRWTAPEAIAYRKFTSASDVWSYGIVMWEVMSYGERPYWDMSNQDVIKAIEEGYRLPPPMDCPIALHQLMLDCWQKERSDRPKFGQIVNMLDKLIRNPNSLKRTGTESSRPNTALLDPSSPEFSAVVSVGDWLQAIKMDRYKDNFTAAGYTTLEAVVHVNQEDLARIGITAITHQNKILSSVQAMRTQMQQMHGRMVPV
Chain of FYN (P06241 whole entry): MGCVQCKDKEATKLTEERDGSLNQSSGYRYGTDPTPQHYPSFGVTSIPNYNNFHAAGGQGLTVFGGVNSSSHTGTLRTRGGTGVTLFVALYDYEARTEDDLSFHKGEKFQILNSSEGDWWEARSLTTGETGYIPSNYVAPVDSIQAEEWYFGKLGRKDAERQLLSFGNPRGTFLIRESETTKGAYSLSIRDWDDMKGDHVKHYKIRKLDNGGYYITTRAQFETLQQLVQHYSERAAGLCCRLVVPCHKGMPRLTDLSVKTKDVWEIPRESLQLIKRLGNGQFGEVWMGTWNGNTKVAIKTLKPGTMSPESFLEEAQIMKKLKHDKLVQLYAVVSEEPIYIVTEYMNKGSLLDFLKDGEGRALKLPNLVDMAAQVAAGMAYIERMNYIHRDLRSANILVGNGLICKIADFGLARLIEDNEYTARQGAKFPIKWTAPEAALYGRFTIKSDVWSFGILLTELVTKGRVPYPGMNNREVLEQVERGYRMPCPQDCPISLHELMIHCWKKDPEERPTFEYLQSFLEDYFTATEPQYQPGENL
Chain of EGFR (P00533 25-1210): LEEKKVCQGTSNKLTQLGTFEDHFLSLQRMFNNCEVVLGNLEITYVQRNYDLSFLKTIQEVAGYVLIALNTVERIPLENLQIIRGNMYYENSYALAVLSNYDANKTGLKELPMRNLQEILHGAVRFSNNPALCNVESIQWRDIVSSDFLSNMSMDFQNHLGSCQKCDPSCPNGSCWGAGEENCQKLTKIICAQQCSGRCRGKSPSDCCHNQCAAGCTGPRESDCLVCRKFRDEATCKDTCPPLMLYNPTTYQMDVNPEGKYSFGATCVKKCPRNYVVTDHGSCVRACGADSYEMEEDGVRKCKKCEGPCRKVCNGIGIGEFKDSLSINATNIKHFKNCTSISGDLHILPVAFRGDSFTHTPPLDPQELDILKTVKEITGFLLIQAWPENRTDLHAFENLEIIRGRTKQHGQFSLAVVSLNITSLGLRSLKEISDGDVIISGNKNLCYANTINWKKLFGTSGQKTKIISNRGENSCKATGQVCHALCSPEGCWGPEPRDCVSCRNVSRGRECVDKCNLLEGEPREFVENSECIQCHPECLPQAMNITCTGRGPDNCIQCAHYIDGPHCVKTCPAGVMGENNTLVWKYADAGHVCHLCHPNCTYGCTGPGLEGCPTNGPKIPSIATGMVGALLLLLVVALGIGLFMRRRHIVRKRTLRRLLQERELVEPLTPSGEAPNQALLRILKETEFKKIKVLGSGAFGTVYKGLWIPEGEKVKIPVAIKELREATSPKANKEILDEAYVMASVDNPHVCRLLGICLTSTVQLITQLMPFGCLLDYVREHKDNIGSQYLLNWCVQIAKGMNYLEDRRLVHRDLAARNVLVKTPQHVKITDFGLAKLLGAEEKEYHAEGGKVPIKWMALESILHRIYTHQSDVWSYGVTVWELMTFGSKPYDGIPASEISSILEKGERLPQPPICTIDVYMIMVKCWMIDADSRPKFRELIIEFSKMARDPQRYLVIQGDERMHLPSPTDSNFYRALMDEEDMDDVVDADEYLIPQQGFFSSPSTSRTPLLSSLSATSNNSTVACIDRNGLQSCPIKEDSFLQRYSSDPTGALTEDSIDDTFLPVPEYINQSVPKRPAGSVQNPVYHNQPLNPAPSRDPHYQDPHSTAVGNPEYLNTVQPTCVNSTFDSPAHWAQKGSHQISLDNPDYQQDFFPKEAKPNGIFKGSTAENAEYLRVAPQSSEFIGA
Chain of NEK6 (Q9HC98 whole entry): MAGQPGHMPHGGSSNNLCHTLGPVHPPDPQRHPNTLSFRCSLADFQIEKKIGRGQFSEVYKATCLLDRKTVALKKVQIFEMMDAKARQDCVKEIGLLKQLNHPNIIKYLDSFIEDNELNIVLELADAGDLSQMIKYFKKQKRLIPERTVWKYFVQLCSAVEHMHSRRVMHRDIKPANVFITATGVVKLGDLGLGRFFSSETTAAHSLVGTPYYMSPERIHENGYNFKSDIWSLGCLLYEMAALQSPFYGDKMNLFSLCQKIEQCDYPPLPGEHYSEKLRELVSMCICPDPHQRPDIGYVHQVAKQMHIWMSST

Take `COc1cc(-c2cncc(-c3ccc(N4C[C@@H](C)N(C)[C@@H](C)C4)cc3)c2C)cc(F)c1C(N)=O` [Compound 26c, 2-Fluoro-6-methoxy-4-(4-methyl-5-(4-((3R,5S)-3,4,5-trimethylpiperazin-1-yl)phenyl)pyridin-3-yl)benzamide]: the remaining activity at 1 µM turned out to be 104% at NEK6; 99.4% at TTBK1; 88.6% on JAK2; 84.5% on TAOK3/JIK; 102% on MASTL; 95.2% on PIM1. Besides, the remaining activity at 1 µM at NEK4 was determined as 98%. Moreover, the “% enzyme activity” value on STK39/STLK3 is reported as 93.62%; at EGFR, 93.91%; on EPHA4, 98.76%; at TESK1, 105.23%; on PKCb2 it was 97.56%; on FYN, 96.30%. In addition, the “% enzyme activity” value at CDK6/cyclin D1 came out at 92.80%; on CLK4 it was 91.14%; on LCK, 98.93%; on CDK19/cyclin C, 85.09%.
In the case of `COc1cc(-c2cncc(-c3ccc(N4CCN(C)CC4)cc3)c2C)cc(F)c1C(N)=O` [Compound 26a, 2-Fluoro-6-methoxy-4-(4-methyl-5-(4-(4-methylpiperazin-1-yl)phenyl)pyridin-3-yl)benzamide], the remaining activity at 1 µM at NEK6 came out at 99.3%; at TTBK1, 97.3%; at JAK2, 93.5%; on TAOK3/JIK it was 69.7%; on MASTL, 99.3%; at PIM1 it was 100%. In addition, the remaining activity at 1 µM on NEK4 amounted to 98.5%. Further, the “% enzyme activity” value at STK39/STLK3 is recorded as 88.76%; on EGFR, 95.66%; on EPHA4, 91.81%; on TESK1 it was 108.88%; on PKCb2, 106.51%; at FYN, 97.69%. Further, the “% enzyme activity” value at CDK6/cyclin D1 was 97.80%; on CLK4, 85.58%; at LCK it was 92.53%; at CDK19/cyclin C, 77.81%.

(Values after publication PMC8213057, “Targeting ALK2: An Open Science Approach to Developing Therapeutics for the Treatment of Diffuse Intrinsic Pontine Glioma” (Journal of Medicinal Chemistry, 2020).)
